Key:
[1] = tested on: Colletotrichum acutatum; test: Fungicidal effect test against fungi causing apple anthracnose; conditions: 96 h, read-out: growth inhibition ratio
[2] = tested on: Fusarium graminearum; test: microbe, parasite or virus in culture; type: cell-based; conditions: 96 h, read-out: growth inhibition ratio
[3] = tested on: Erysiphe graminis f.sp.tritici; test: Control test of wheat powdery mildew disease (sprayed young wheat seedlings); type: in vivo; conditions: Blumeria graminis, 144 h, 125 ppm by mass spray, six days after inoculation
[4] = tested on: Venturia inaequalis; test: Control test of apple scab disease (sprayed young apple seedlings); type: in vivo; conditions: 125 ppm by mass spray, 12 to 14 days after inoculation
[5] = tested on: Glomerella cingulata; test: Fungicidal effect test against fungi causing grape ripe rot disease; conditions: Colletotrichum gloeosporioides, 72 h, read-out: growth inhibition ratio
[6] = tested on: Botrytis cinerea; test: Control test of cucumber gray mold (sprayed young cucumber seedlings); type: in vivo; conditions: 96 h, four days after inoculation; for pest or weed control at 25 ppm: 25 ppm by mass spray; for pest or weed control at 125 ppm: 125 ppm by mass spray
Method: Then, the drug liquid was sprayed onto young cucumber seedlings cultivated in a nursery pot (variety “Jihai”-based, cotyledon stage), and then air-dried. […] They were left still in a moist room at 20° C. Four days after inoculation, leaves of the young cucumber seedlings were visually observed, and the control value was calculated from the lesion area ratio in accordance with the following equation. [formula]

[7] = tested on: Botrytis cinerea; type: cell-based; conditions: 120 h, 25 ppm by volume, Vogel medium, 20° C., five days, dark, read-out: growth inhibition ratio

COC(=O)N(Cc1ccc(Cl)cc1C)NC(=O)c1cc(C)ncc1Oc1cccc(C2CC2)c1F [b-77]
≥ 75%: inhibition of growth at 25 ppm [1] | inhibition of growth at 25 ppm [2] | pest or weed control at 125 ppm [3] | pest or weed control at 125 ppm [4] | inhibition of growth at 25 ppm [5] | pest or weed control at 25 ppm [6] | pest or weed control at 125 ppm [6] | inhibition of growth at 25 ppm [7]

COC(=O)N(Cc1ccc(C)cc1C)NC(=O)c1cc(C)nnc1Oc1cccc(C2CC2)c1 [b-80]
≥ 75%: inhibition of growth at 25 ppm [1] | inhibition of growth at 25 ppm [2] | pest or weed control at 125 ppm [3] | pest or weed control at 125 ppm [4] | inhibition of growth at 25 ppm [5] | pest or weed control at 25 ppm [6] | pest or weed control at 125 ppm [6] | inhibition of growth at 25 ppm [7]

COC(=O)N(Cc1ccc(C)cc1C)NC(=O)c1cc(C)ncc1Oc1cccc(Br)c1F [b-88]
≥ 75%: inhibition of growth at 25 ppm [1] | inhibition of growth at 25 ppm [2] | pest or weed control at 125 ppm [3] | pest or weed control at 125 ppm [4] | inhibition of growth at 25 ppm [5] | pest or weed control at 25 ppm [6] | pest or weed control at 125 ppm [6] | inhibition of growth at 25 ppm [7]

COC(=O)N(Cc1ccc(C)cc1C)NC(=O)c1c(Oc2cccc(C3CC3)c2F)nnc2ccccc12 [b-90, Methyl 2-(3-(3-cyclopropyl-2-fluorophenoxy)cinnoline-4-carbonyl)-1-(2,4-dimethylbenzyl)hydrazine-1-carboxylate]
≥ 75%: inhibition of growth at 25 ppm [1] | inhibition of growth at 25 ppm [2] | pest or weed control at 125 ppm [3] | pest or weed control at 125 ppm [4] | inhibition of growth at 25 ppm [5] | pest or weed control at 25 ppm [6] | pest or weed control at 125 ppm [6] | inhibition of growth at 25 ppm [7]

COC(=O)N(Cc1ccc(C)cc1C)NC(=O)c1cc(OC)ncc1Oc1cccc(C2CC2)c1F [b-94]
≥ 75%: inhibition of growth at 25 ppm [1] | inhibition of growth at 25 ppm [2] | pest or weed control at 125 ppm [3] | pest or weed control at 125 ppm [4] | inhibition of growth at 25 ppm [5] | pest or weed control at 25 ppm [6] | pest or weed control at 125 ppm [6] | inhibition of growth at 25 ppm [7]

COC(=O)N(Cc1ccc(OC)cc1C)NC(=O)c1c(Oc2cccc(C3CC3)c2F)nnc(Cl)c1C [b-106]
≥ 75%: inhibition of growth at 25 ppm [1] | inhibition of growth at 25 ppm [2] | pest or weed control at 125 ppm [3] | pest or weed control at 125 ppm [4] | inhibition of growth at 25 ppm [5] | pest or weed control at 25 ppm [6] | pest or weed control at 125 ppm [6] | inhibition of growth at 25 ppm [7]

COC(=O)N(Cc1ccc(OC)cc1C)NC(=O)c1cc(C)ncc1Oc1cccc(Br)c1 [b-107]
≥ 75%: inhibition of growth at 25 ppm [1] | inhibition of growth at 25 ppm [2] | pest or weed control at 125 ppm [3] | pest or weed control at 125 ppm [4] | inhibition of growth at 25 ppm [5] | pest or weed control at 125 ppm [6] | inhibition of growth at 25 ppm [7]

COC(=O)N(Cc1ccc(OC)cc1C)NC(=O)c1cc(C)ncc1Oc1cccc(Br)c1F [b-108]
≥ 75%: inhibition of growth at 25 ppm [1] | inhibition of growth at 25 ppm [2] | pest or weed control at 125 ppm [3] | pest or weed control at 125 ppm [4] | inhibition of growth at 25 ppm [5] | pest or weed control at 25 ppm [6] | pest or weed control at 125 ppm [6] | inhibition of growth at 25 ppm [7]

COC(=O)N(Cc1ccc(C)cc1C)NC(=O)c1cc(Br)ncc1Oc1cccc(Br)c1F [b-111]
≥ 75%: inhibition of growth at 25 ppm [1] | inhibition of growth at 25 ppm [2] | pest or weed control at 125 ppm [3] | pest or weed control at 125 ppm [4] | inhibition of growth at 25 ppm [5] | pest or weed control at 125 ppm [6] | inhibition of growth at 25 ppm [7]

COC(=O)N(Cc1ccc(C)cc1C)NC(=O)c1cc(C)nnc1Oc1cccc(F)c1 [b-112]
≥ 75%: inhibition of growth at 25 ppm [1] | inhibition of growth at 25 ppm [2] | pest or weed control at 125 ppm [3] | pest or weed control at 125 ppm [4] | inhibition of growth at 25 ppm [5] | pest or weed control at 125 ppm [6] | inhibition of growth at 25 ppm [7]

COC(=O)N(Cc1ccc(C)cc1C)NC(=O)c1cc(C)nnc1Oc1cccc(Cl)c1 [b-113]
≥ 75%: inhibition of growth at 25 ppm [1] | inhibition of growth at 25 ppm [2] | pest or weed control at 125 ppm [3] | pest or weed control at 125 ppm [4] | inhibition of growth at 25 ppm [5] | pest or weed control at 25 ppm [6] | pest or weed control at 125 ppm [6] | inhibition of growth at 25 ppm [7]

Cc1cccc(Oc2nnc(C)cc2C(=O)NN(Cc2ccc(C)cc2C)C(=O)O)c1 [b-117]
≥ 75%: inhibition of growth at 25 ppm [1] | inhibition of growth at 25 ppm [2] | pest or weed control at 125 ppm [3] | pest or weed control at 125 ppm [4] | inhibition of growth at 25 ppm [5] | pest or weed control at 25 ppm [6] | pest or weed control at 125 ppm [6] | inhibition of growth at 25 ppm [7]

COC(=O)N(Cc1ccc(C)cc1C)NC(=O)c1c(Br)cncc1Oc1cccc(C2CC2)c1 [b-118]
≥ 75%: inhibition of growth at 25 ppm [1] | inhibition of growth at 25 ppm [2] | pest or weed control at 125 ppm [3] | pest or weed control at 125 ppm [4] | inhibition of growth at 25 ppm [5] | pest or weed control at 25 ppm [6] | pest or weed control at 125 ppm [6] | inhibition of growth at 25 ppm [7]

COC(=O)N(Cc1ccc(C)cc1C)NC(=O)c1cc(C)nnc1Oc1csc(C(F)(F)F)c1 [b-124, Methyl 1-(2,4-dimethylbenzyl)-2-(6-methyl-3-((5-(trifluoromethyl)thiophen-3-yl)oxy)pyridazine-4-carbonyl)hydrazine-1-carboxylate]
≥ 75%: inhibition of growth at 25 ppm [1] | inhibition of growth at 25 ppm [2] | pest or weed control at 125 ppm [3] | pest or weed control at 125 ppm [4] | inhibition of growth at 25 ppm [5] | pest or weed control at 125 ppm [6] | inhibition of growth at 25 ppm [7]

COC(=O)N(Cc1ccc2c(c1)CCC2)NC(=O)c1cc(C)ncc1Oc1cccc(C2CC2)c1F [b-127]
≥ 75%: inhibition of growth at 25 ppm [1] | inhibition of growth at 25 ppm [2] | pest or weed control at 125 ppm [3] | pest or weed control at 125 ppm [4] | inhibition of growth at 25 ppm [5] | pest or weed control at 25 ppm [6] | pest or weed control at 125 ppm [6] | inhibition of growth at 25 ppm [7]

COC(=O)N(Cc1ccc(C)cc1C)NC(=O)c1ccncc1Oc1cccc(Br)c1 [b-145]
≥ 75%: inhibition of growth at 25 ppm [1] | inhibition of growth at 25 ppm [2] | pest or weed control at 125 ppm [3] | pest or weed control at 125 ppm [4] | inhibition of growth at 25 ppm [5] | pest or weed control at 25 ppm [6] | pest or weed control at 125 ppm [6] | inhibition of growth at 25 ppm [7]

COC(=O)N(Cc1ccc(OC)cc1C)NC(=O)c1ccncc1Oc1cccc(Br)c1 [b-146]
≥ 75%: inhibition of growth at 25 ppm [1] | inhibition of growth at 25 ppm [2] | pest or weed control at 125 ppm [3] | pest or weed control at 125 ppm [4] | inhibition of growth at 25 ppm [5] | pest or weed control at 125 ppm [6] | inhibition of growth at 25 ppm [7]

COC(=O)N(Cc1ccc(C)cc1C)NC(=O)c1ccncc1Oc1cccc(Br)c1F [b-147]
≥ 75%: inhibition of growth at 25 ppm [1] | inhibition of growth at 25 ppm [2] | pest or weed control at 125 ppm [3] | pest or weed control at 125 ppm [4] | inhibition of growth at 25 ppm [5] | pest or weed control at 25 ppm [6] | pest or weed control at 125 ppm [6] | inhibition of growth at 25 ppm [7]

COC(=O)N(Cc1ccc(OC)cc1C)NC(=O)c1ccncc1Oc1cccc(Br)c1F [b-148]
≥ 75%: inhibition of growth at 25 ppm [1] | inhibition of growth at 25 ppm [2] | pest or weed control at 125 ppm [3] | pest or weed control at 125 ppm [4] | inhibition of growth at 25 ppm [5] | pest or weed control at 25 ppm [6] | pest or weed control at 125 ppm [6] | inhibition of growth at 25 ppm [7]

From patent publication US20260198493A1, “HYDRAZIDE COMPOUND AND AGRICULTURAL/HORTICULTURAL FUNGICIDE” (Nippon Soda Co., Ltd., priority 2022, published 2026)
